Experiments:
cells = test: Oxygen consumption rate (OCR) after 3HP-dependent GSH loss (FIG. 6); assay type: cell-based
hepatocytes = test: Menadione toxicity to hepatocytes from young and old rats (percent viability, LC50); assay type: cell-based, rat
Source text: (§1) Hepatocytes isolated from an old rat have 60% less mitochondrial GSH than that seen in young adult animals. In this example, menadione was used as a redox cycler, to stress mitochondria in hepatocytes, as GSH-dependent mechanisms can be involved its detoxification. […] The increased vulnerability to menadione has been linked to the loss of GSH resulting from the decline in GSH synthesis capacity.
(§2) Menadione treatment alone served as the positive control.

[1] = as above; assay type: cell-based, rat; settings: rat
Source text: as §1, §2

[2] = test system: hepatocytes from aged rats; settings: triphenylphosphonium alone
Protocol: Menadione treatment alone served as the positive control. Viability in untreated hepatocytes also was measured over two hours.

mice = test: Effect of mitoGSH in animals: i.p. injection of TPP-GSSG, 48 hour observation, liver chemistry profile; assay type: in vivo; settings: 3.8 mg/kg i.p.
Protocol: Three seven-month-old female non-transgenic mice (approximately 30 g each) were injected i.p. with 3.8 mg/kg TPP-GSSG in 100 μL/mouse. TPP-GSSG was initially solubilized in DMF and later diluted in millipure water to 5.3% (v/v) dimethylformamide for injection. […] All mice gained weight (0.1 g-2.3 g) over the 48 hour period. Blood was collected via brachial cut, spun down to collect plasma and then delivered to OSU Veterinary Diagnostic Laboratory for a small animal liver chemistry profile.

Compound: C=CC(O)CC(=O)O (stereo not drawn) [3HP, 3-hydroxy-4-pentenoate]
- basal respiration, ATP turnover, proton leak, non-mitochondrial respiration (OCR) (cells; 3HP-dependent GSH loss): does not alter
- respiratory capacity (OCR) (cells; higher levels of 3HP treatment): increasingly lost

Compound: CC1=CC(=O)c2ccccc2C1=O [menadione]
- CC50 (hepatocytes; hepatocytes from old rats): 232 µM
- CC50 (hepatocytes; hepatocytes from young rats): 401 µM
- CC50 ([1]; isolated hepatocytes from old rats, hepatocytes from old rats): 300 µM
- CC50 ([1]; isolated hepatocytes from young rats, hepatocytes from young rats): ~500 µM

Compound: Triphenylphosphonium
- effect on hepatocyte viability [2]: did not affect viability

Compound: Triphenylphosphonium glutathione disulfide tetraethyl ester [TPP-GSSG]
- health and activity of mice (mice; 48 hours, female non-transgenic mice): no detrimental effects observed
- small animal liver chemistry profile (plasma) (mice; after 48 hours): No liver damage or abnormalities were detected

— patent publication US20250282817A1, “COMPOUNDS FOR DELIVERING GLUTATHIONE TO A TARGET AND METHODS OF MAKING AND USING THE SAME” (priority 2016, published 2025)
